# Laboratory results taken from patent US8633205B2, “Substituted pyrrolo[2,3-d]pyrimidines as inhibitors of protein kinases” (Vertex Pharmaceuticals Incorporated, priority 2005, dated 2014).
# Target: T1, JAK3 (Homo sapiens, UniProt P52333)
# T1 sequence (P52333 1-1124): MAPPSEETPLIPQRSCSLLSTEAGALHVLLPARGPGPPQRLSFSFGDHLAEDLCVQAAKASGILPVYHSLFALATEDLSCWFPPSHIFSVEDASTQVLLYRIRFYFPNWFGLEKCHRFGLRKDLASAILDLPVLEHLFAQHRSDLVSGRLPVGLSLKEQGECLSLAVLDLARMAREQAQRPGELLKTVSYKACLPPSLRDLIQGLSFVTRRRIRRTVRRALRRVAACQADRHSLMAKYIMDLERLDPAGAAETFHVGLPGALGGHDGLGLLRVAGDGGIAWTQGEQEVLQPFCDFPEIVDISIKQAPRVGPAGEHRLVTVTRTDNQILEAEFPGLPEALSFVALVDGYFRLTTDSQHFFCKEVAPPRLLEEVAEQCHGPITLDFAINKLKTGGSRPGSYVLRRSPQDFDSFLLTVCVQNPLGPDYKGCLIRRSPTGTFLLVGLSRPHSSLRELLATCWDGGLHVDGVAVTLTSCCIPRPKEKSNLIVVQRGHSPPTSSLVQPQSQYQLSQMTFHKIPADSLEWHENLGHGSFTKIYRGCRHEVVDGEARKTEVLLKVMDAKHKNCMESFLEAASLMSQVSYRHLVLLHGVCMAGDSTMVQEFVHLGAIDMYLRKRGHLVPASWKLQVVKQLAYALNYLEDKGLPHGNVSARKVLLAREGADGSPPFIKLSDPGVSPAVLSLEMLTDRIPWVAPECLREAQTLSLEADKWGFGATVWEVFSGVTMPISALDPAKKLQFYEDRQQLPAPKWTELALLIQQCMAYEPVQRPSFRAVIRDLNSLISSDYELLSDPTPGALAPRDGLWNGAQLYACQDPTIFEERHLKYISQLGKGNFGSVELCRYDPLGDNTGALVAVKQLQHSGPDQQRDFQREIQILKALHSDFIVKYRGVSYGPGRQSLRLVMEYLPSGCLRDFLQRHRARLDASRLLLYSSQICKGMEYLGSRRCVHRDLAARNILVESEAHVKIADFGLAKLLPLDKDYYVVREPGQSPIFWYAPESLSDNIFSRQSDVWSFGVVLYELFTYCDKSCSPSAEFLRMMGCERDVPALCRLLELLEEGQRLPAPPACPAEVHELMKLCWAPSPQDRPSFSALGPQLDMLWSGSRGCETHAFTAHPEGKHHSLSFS
# Experiment: JAK3 Inhibition Assay
# Assay type: biochemical
# Conditions: 1 μM poly(Glu)4Tyr, 5 μM ATP, 1 nM JAK3, 25 °C; read-out: JAK3 enzyme inhibition (Ki)
# Method: (§1) Compounds were screened for their ability to inhibit JAK using the […] below. Reactions were carried out in a kinase buffer containing 100 mM HEPES (pH 7.4), 1 mM DTT, 10 mM MgCl2, 25 mM NaCl, and 0.01% BSA.
# (§2) Substrate concentrations in the assay were 5 μM ATP (200 uCi/μmole ATP) 1 μM poly(Glu)4Tyr. Reactions were carried out at 25 ° C. and 1 nM JAK3.
# (§3) To each well of a 96 well polycarbonate plate was added 1.5 μl of a JAK3 inhibitor along with 50 μl of kinase buffer containing 2 μM poly(Glu)4Tyr and 10 μM ATP. This was then mixed and 50 μl of kinase buffer 2 nM JAK3 enzyme was added to start the reaction. After 20 minutes at room temperature (25C), the reaction was stopped with 50 μl of 20% trichloroacetic acid (TCA) that also contained 0.4 mM ATP. The entire contents of each well were then transferred to a 96 well glass fiber filter plate using a TomTek Cell Harvester. After washing, 60 μl of scintillation fluid was added and ^33P incorporation detected on a Perkin Elmer TopCount.
row,SMILES,Ki [nM]
1,"C1=C(c2ncnc3[nH]ccc23)CCC1 [Compound 1, 4-cyclopentenyl-7H-pyrrolo[2,3-d]pyrimidine]",< 500
2,C1=C(c2ncnc3[nH]ccc23)CCCC1 [Compound 2],< 500
3,"c1nc(C2CCCC2)c2cc[nH]c2n1 [Compound 3, 4-cyclopentyl-7H-pyrrolo[2,3-d]pyrimidine]",500 to 5000
4,"C(=C\c1ncnc2[nH]ccc12)/c1ccccc1 [Compound 4, 4-styryl-7H-pyrrolo[2,3-d]pyrimidine]",< 500
5,"Fc1ccc(/C=C/c2ncnc3[nH]ccc23)cc1 [Compound 5, 4-(4-fluorostyryl)-7H-pyrrolo[2,3-d]pyrimidine]",< 500
6,"Clc1ccc(/C=C/c2ncnc3[nH]ccc23)cc1 [Compound 6, 4-(4-chlorostyryl)-7H-pyrrolo[2,3-d]pyrimidine]",< 500
7,"FC(F)(F)c1ccc(/C=C/c2ncnc3[nH]ccc23)cc1 [Compound 7, 4-(4-(trifluoromethyl)styryl)-7H-pyrrolo[2,3-d]pyrimidine]",< 500
8,"C=C(c1ccccc1)c1ncnc2[nH]ccc12 [Compound 8, 4-(1-phenylvinyl)-7H-pyrrolo[2,3-d]pyrimidine]",500 to 5000
9,CC(C)(C)OC(=O)N1CC=C(c2ncnc3[nH]ccc23)CC1 [Compound 9],< 500
10,C1=C(c2ncnc3[nH]ccc23)CCNC1 [Compound 10],> 5000
11,CC1CCCC=C1c1ncnc2[nH]ccc12 (stereo not drawn) [Compound 11],< 500
12,C1=C(c2ncnc3[nH]ccc23)CCSC1 [Compound 13],< 500

# Target: JAK2 (Homo sapiens, UniProt O60674)
# Sequence (O60674 whole entry): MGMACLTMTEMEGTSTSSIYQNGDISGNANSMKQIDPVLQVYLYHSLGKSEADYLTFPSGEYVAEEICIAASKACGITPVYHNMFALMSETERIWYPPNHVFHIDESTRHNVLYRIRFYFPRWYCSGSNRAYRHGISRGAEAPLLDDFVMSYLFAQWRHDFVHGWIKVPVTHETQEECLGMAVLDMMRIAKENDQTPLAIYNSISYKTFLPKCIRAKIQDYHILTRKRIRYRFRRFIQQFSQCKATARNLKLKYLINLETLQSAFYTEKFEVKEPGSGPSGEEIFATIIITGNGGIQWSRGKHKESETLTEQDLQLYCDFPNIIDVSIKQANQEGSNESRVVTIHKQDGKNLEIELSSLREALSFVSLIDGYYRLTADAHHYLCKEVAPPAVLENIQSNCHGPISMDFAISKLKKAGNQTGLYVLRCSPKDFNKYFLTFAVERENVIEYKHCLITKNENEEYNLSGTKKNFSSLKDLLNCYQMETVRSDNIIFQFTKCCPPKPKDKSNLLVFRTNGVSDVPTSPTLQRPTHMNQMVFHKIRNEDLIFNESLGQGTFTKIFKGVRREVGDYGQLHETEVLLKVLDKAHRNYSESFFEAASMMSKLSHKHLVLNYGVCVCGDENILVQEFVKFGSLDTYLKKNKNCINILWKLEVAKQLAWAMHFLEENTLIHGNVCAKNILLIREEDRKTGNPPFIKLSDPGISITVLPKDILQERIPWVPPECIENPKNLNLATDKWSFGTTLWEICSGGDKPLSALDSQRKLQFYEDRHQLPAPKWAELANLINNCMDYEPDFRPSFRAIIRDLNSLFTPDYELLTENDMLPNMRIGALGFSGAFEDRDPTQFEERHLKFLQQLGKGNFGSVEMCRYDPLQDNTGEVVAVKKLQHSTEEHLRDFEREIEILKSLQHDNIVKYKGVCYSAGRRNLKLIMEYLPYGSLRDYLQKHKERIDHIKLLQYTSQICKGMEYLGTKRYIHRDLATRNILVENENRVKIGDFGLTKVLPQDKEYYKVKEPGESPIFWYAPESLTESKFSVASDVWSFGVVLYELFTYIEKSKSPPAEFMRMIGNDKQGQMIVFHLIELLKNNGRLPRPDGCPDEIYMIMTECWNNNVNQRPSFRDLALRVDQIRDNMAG
# Experiment: JAK2 Inhibition Assay
# Assay type: biochemical
# Conditions: 15 μM poly(Glu)4Tyr, 12 μM ATP; read-out: JAK2 enzyme inhibition (Ki)
# Method: as §1, §2, §3
# As described above in Example 11 except that JAK-2 enzyme is used, the final poly(Glu)4Tyr concentration is 15 μM, and final ATP concentration is 12 μM.
row,SMILES,Ki [nM]
1,"C1=C(c2ncnc3[nH]ccc23)CCC1 [Compound 1, 4-cyclopentenyl-7H-pyrrolo[2,3-d]pyrimidine]",< 500
2,C1=C(c2ncnc3[nH]ccc23)CCCC1 [Compound 2],< 500
3,"c1nc(C2CCCC2)c2cc[nH]c2n1 [Compound 3, 4-cyclopentyl-7H-pyrrolo[2,3-d]pyrimidine]",500 to 5000
4,"C(=C\c1ncnc2[nH]ccc12)/c1ccccc1 [Compound 4, 4-styryl-7H-pyrrolo[2,3-d]pyrimidine]",< 500
5,"Fc1ccc(/C=C/c2ncnc3[nH]ccc23)cc1 [Compound 5, 4-(4-fluorostyryl)-7H-pyrrolo[2,3-d]pyrimidine]",< 500
6,"Clc1ccc(/C=C/c2ncnc3[nH]ccc23)cc1 [Compound 6, 4-(4-chlorostyryl)-7H-pyrrolo[2,3-d]pyrimidine]",< 500
7,"FC(F)(F)c1ccc(/C=C/c2ncnc3[nH]ccc23)cc1 [Compound 7, 4-(4-(trifluoromethyl)styryl)-7H-pyrrolo[2,3-d]pyrimidine]",< 500
8,"C=C(c1ccccc1)c1ncnc2[nH]ccc12 [Compound 8, 4-(1-phenylvinyl)-7H-pyrrolo[2,3-d]pyrimidine]",> 5000
9,CC(C)(C)OC(=O)N1CC=C(c2ncnc3[nH]ccc23)CC1 [Compound 9],< 500
10,C1=C(c2ncnc3[nH]ccc23)CCNC1 [Compound 10],> 5000
11,CC1CCCC=C1c1ncnc2[nH]ccc12 (stereo not drawn) [Compound 11],500 to 5000
12,C1=C(c2ncnc3[nH]ccc23)CCSC1 [Compound 13],< 500

# Target: PKA (Homo sapiens, UniProt P17612)
# Experiment: PKA Inhibition Assay (coupled enzyme assay)
# Assay type: biochemical
# Conditions: 50 μM ATP, 80 μM Kemptide, 18 nM PKA, 30 °C
# Method: Compounds were screened for their ability to inhibit PKA using a standard coupled enzyme assay (Fox et al., Protein Sci, 1998, 7, 2249). Assays were carried out in a mixture of 100 mM HEPES (pH 7.5), 10 mM MgCl2, 25 mM NaCl, 1 mM DTT and 3% DMSO. Final substrate concentrations in the assay were 50 μM ATP (Sigma Chemicals) and 80 μM peptide (Kemptide, American Peptide, Sunnyvale, Calif.). Assays were carried out at 30 ° C. and 18 nM PKA. Final concentrations of the components of the coupled enzyme system were 2.5 mM phosphoenolpyruvate, 300 μM NADH, 30 μg/ml pyruvate kinase and 10 μg/ml lactate dehydrogenase.
# An assay stock buffer solution was prepared containing all of the reagents listed above, with the exception of ATP, and the test compound of the present invention. 55 μl of the stock solution was placed in a 96 well plate followed by addition of 2 μl of DMSO stock containing serial dilutions of the test compound of the present invention (typically starting from a final concentration of 5 μM). The plate was preincubated for 10 minutes at 30° C. and the reaction initiated by addition of 5 μl of ATP (final concentration 50 μM). Initial reaction rates were determined with a Molecular Devices SpectraMax Plus plate reader over a 15 minute time course. IC50 and Ki data were calculated from non-linear regression analysis using the Prism software package (GraphPad Prism version 3.0a for Macintosh, GraphPad Software, San Diego, Calif., USA).
row,SMILES,Ki [nM]
1,"C1=C(c2ncnc3[nH]ccc23)CCC1 [Compound 1, 4-cyclopentenyl-7H-pyrrolo[2,3-d]pyrimidine]",500 to 5000
2,C1=C(c2ncnc3[nH]ccc23)CCCC1 [Compound 2],500 to 5000
3,"c1nc(C2CCCC2)c2cc[nH]c2n1 [Compound 3, 4-cyclopentyl-7H-pyrrolo[2,3-d]pyrimidine]",500 to 5000
4,"C(=C\c1ncnc2[nH]ccc12)/c1ccccc1 [Compound 4, 4-styryl-7H-pyrrolo[2,3-d]pyrimidine]",500 to 5000
5,"Fc1ccc(/C=C/c2ncnc3[nH]ccc23)cc1 [Compound 5, 4-(4-fluorostyryl)-7H-pyrrolo[2,3-d]pyrimidine]",500 to 5000
6,"Clc1ccc(/C=C/c2ncnc3[nH]ccc23)cc1 [Compound 6, 4-(4-chlorostyryl)-7H-pyrrolo[2,3-d]pyrimidine]",500 to 5000
7,"FC(F)(F)c1ccc(/C=C/c2ncnc3[nH]ccc23)cc1 [Compound 7, 4-(4-(trifluoromethyl)styryl)-7H-pyrrolo[2,3-d]pyrimidine]",500 to 5000
8,"C=C(c1ccccc1)c1ncnc2[nH]ccc12 [Compound 8, 4-(1-phenylvinyl)-7H-pyrrolo[2,3-d]pyrimidine]",500 to 5000
9,CC(C)(C)OC(=O)N1CC=C(c2ncnc3[nH]ccc23)CC1 [Compound 9],500 to 5000
10,C1=C(c2ncnc3[nH]ccc23)CCNC1 [Compound 10],500 to 5000
11,CC1CCCC=C1c1ncnc2[nH]ccc12 (stereo not drawn) [Compound 11],500 to 5000
12,C1=C(c2ncnc3[nH]ccc23)CCSC1 [Compound 13],500 to 5000

# Target: T2, ROCK (Homo sapiens, UniProt Q13464)
# T2 construct: ROCK I (AA 6-553)
# T2 sequence (Q13464 6-553): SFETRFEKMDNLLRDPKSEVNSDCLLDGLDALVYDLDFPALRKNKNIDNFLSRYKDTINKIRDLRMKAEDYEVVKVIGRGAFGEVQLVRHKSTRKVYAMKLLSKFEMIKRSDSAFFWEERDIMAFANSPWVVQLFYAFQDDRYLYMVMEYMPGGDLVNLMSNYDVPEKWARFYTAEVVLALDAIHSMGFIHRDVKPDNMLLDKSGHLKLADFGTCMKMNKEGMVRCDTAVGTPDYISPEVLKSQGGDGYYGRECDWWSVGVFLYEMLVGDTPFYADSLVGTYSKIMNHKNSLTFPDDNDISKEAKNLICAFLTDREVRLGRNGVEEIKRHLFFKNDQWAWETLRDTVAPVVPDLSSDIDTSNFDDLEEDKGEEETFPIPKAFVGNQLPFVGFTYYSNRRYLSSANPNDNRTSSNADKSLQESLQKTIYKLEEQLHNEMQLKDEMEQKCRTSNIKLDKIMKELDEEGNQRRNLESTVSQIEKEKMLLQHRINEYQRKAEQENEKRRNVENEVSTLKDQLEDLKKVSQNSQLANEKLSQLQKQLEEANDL
# Experiment: ROCK Inhibition Assays
# Assay type: biochemical
# Conditions: read-out: ROCK enzyme inhibition (Ki)
# Method: Compounds are screened for their ability to inhibit ROCK I (AA 6-553) activity using a standard coupled enzyme system (Fox et al. Protein Sci. 7: 2249, 1998). Reactions are carried out in a solution containing 100 mM HEPES (pH 7.5), 10 mM MgCl2, 25 mM NaCl, 2 mM DTT and 1.5% DMSO. Final substrate concentrations in the assay are 45 μM ATP (Sigma Chemicals, St Louis, Mo.) and 200 μM peptide (American Peptide, Sunnyvale, Calif.). Reactions are carried out at 30 ° C. and 45 nM ROCK I. Final concentrations of the components of the coupled enzyme system are 2.5 mM phosphoenolpyruvate, 350 μM NADH, 30 μg/ml pyruvate kinase and 10 μg/ml lactate dehydrogenase.
# Compounds are screened for their ability to inhibit ROCK using a standard radioactive enzyme assay. Assays are carried out in a solution containing 100 mM HEPES (pH 7.5), 10 mM MgCl2, 25 mM NaCl, 2 mM DTT and 1.5% DMSO. Final substrate concentrations in the assay are 13 μM [γ-^33P] ATP (25 mCi ^33P ATP/mmol ATP, Perkin Elmer, Cambridge, Mass./Sigma Chemicals, St Louis, Mo.) and 27 μM Myelin Basic Protein (MBP). Final enzyme concentration in the assay is 5 nM ROCK. Assays are carried out at room temperature. 1.5 μl of DMSO stock containing serial dilutions of the compound of the present invention (concentrations ranging from 10 μM to 2.6 nM) is placed in a 96 well plate. 50 μl of Solution 1 (100 mM HEPES (pH 7.5), 10 mM MgCl2, […] [γ-^33P] ATP) is added to the plate. The reaction is initiated by addition of 50 μl of Solution 2 (100 mM HEPES (pH 7.5), 10 mM MgCl2, 4 mM DTT, […] and 10 nM ROCK). After 2 hours the reaction is quenched with 50 μL of 30% trichloroacetic acid (TCA, Fisher) containing 9 mM ATP. Transfer of 140 μL of the quenched reaction to a glass fiber filter plate (Corning, Cat. No.3511) is followed by washing 3 times with 5% TCA. 50 μL of Optima Gold scintillation fluid (Perkin Elmer) is added and the plates are counted on a Top Count (Perkin Elmer). After removing mean background values for all of the data points the data is fit using Prism software to obtain a Ki(app).
row,SMILES,Ki [nM]
1,"C1=C(c2ncnc3[nH]ccc23)CCC1 [Compound 1, 4-cyclopentenyl-7H-pyrrolo[2,3-d]pyrimidine]",500 to 5000
2,C1=C(c2ncnc3[nH]ccc23)CCCC1 [Compound 2],500 to 5000
3,"c1nc(C2CCCC2)c2cc[nH]c2n1 [Compound 3, 4-cyclopentyl-7H-pyrrolo[2,3-d]pyrimidine]",500 to 5000
4,"C(=C\c1ncnc2[nH]ccc12)/c1ccccc1 [Compound 4, 4-styryl-7H-pyrrolo[2,3-d]pyrimidine]",500 to 5000
5,"Fc1ccc(/C=C/c2ncnc3[nH]ccc23)cc1 [Compound 5, 4-(4-fluorostyryl)-7H-pyrrolo[2,3-d]pyrimidine]",500 to 5000
6,"Clc1ccc(/C=C/c2ncnc3[nH]ccc23)cc1 [Compound 6, 4-(4-chlorostyryl)-7H-pyrrolo[2,3-d]pyrimidine]",500 to 5000
7,"FC(F)(F)c1ccc(/C=C/c2ncnc3[nH]ccc23)cc1 [Compound 7, 4-(4-(trifluoromethyl)styryl)-7H-pyrrolo[2,3-d]pyrimidine]",500 to 5000
8,"C=C(c1ccccc1)c1ncnc2[nH]ccc12 [Compound 8, 4-(1-phenylvinyl)-7H-pyrrolo[2,3-d]pyrimidine]",500 to 5000
9,CC(C)(C)OC(=O)N1CC=C(c2ncnc3[nH]ccc23)CC1 [Compound 9],500 to 5000
10,C1=C(c2ncnc3[nH]ccc23)CCNC1 [Compound 10],500 to 5000
11,CC1CCCC=C1c1ncnc2[nH]ccc12 (stereo not drawn) [Compound 11],500 to 5000
12,C1=C(c2ncnc3[nH]ccc23)CCSC1 [Compound 13],500 to 5000
